For this series, the target named is T1, bovine serum albumin (BSA-methylglyoxal glycation) (Bos taurus, UniProt P02769).
T1 construct: purchased Merck Marker Pvt; Ltd. (Germany)
Nature of the series: in vitro BSA-MG glycation model (antiglycation assay). The format is biochemical. Conditions: for inhibition at 1000 µM: read-out: inhibition of protein glycation. As for the experimental part:
Bovine Serum Albumin (BSA) was purchased from Merck Marker Pvt. Ltd. (Germany), rutin and methylglyoxal (MG) (40% aqueous solution) were from Sigma Aldrich (Japan), sodium dihydrogen phosphate (NaH2PO4), disodium hydrogen phosphate (Na2HPO4) and sodium azide (NaN3) were purchased from Scharlau Chemie, S. A. (Spain), while dimethyl sulphoxide (DMSO) was purchased from Fischer Scientific (UK).
The total reaction volume of the assay was 200 μL, having final concentrations of 10 mg/mL BSA, 14 mM methylglyoxal, and 1 mM test compounds. 10 mg/mL solution of BSA and 14 mM methylglyoxal was prepared in 0.1 M phosphate buffer (pH 7.4), containing sodium azide (NaN3) (30 mM) as antimicrobial agent, while 1 mM solutions of test compounds were prepared in the DMSO. Assay was performed in triplicate. Each reaction mixtures were comprised of 50 μL BSA, 50 μL methylglyoxal, 20 μL test compound and 80 μL phosphate buffer (pH 7.4). The reaction mixture was incubated under aseptic conditions at 37° C. for 9 days.
After completion of nine days of incubation, each sample was examined for the development of specific fluorescence (excitation 330 nm; emission 420 nm) against blank on a microtitre plate reader (SpectraMax M2, Molecular Devices, CA, USA).
The percent inhibition of AGE formation by the test sample versus control was calculated by using the following formula:
% Inhibition=([…]−Fluorescence of test sample/Fluorescence of the control)×100
The IC50 (i.e. the concentration of test samples that inhibit the process of glycation to 50%) was determined by monitoring the effect of various concentrations (ranges from 1000-50 μM) of test compounds. The IC50 values were calculated by using EZ-FIT Enzyme Kinetics Program (Perrella Scientific Inc., Amherst, USA). The antiglycation potential of test compounds was compared with rutin, which was used as standard inhibitor.

[1] abbreviates: Antiglycation Studies IC50 ± SEM, BSA-MG model, 10 mg/mL BSA, 14 mM methylglyoxal, 37° C., 9 days, fluorescence ex 330/em 420 nm.

“And” between values parts separate entries of the source, which are not always exact repeats. Equal values may be shown once. Read-outs that look alike come from different tables or passages of the source.

The inhibition is the drop in the measured response relative to a control, in per cent. As a reminder, the IC50 is the point on the concentration scale where inhibition reaches its midpoint.

T1 sequence (P02769 25-607): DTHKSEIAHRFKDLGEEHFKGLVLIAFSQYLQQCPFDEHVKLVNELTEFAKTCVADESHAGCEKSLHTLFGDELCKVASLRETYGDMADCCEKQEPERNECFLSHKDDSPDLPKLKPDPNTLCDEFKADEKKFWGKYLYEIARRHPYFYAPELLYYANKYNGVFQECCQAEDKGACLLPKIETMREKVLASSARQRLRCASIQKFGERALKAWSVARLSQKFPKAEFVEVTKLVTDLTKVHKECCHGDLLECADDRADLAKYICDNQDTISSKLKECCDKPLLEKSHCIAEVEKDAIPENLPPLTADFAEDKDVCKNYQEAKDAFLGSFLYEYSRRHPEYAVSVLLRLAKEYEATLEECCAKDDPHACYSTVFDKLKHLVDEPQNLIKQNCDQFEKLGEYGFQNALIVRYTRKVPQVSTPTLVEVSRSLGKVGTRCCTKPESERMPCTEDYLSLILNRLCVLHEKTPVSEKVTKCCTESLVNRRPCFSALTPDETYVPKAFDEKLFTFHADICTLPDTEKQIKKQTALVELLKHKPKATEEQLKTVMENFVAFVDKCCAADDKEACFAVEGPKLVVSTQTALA

In the case of `O=C(NN=Cc1cccc([N+](=O)[O-])c1)c1ccccc1` [Compound 1, N′-(3-Nitrobenzylidene)benzohydrazide], the “Antiglycation Studies IC50 ± SEM” value was “Inactive”, the “antiglycation activity (in words)” value is “inactive” and the inhibition at 1000 µM was less than 50%.
Consider `O=C(NN=Cc1ccccc1[N+](=O)[O-])c1ccccc1` [Compound 2, N′-(2-Nitrobenzylidene)benzohydrazide], for which the “Antiglycation Studies IC50 ± SEM” value was “Inactive”, the “antiglycation activity (in words)” value was “inactive” and the inhibition at 1000 µM is less than 50%.
Turning to `O=C(NN=Cc1ccco1)c1cccs1` [Compound 3, 2-Thiophenecarboxylic acid, (2-furanylmethylene)hydrazide (9CI)], under setting [1], the 50% inhibitory concentration (IC50) amounted to 520.8 ± 1.8 µM. Further, the “antiglycation activity (in words)” value (BSA-MG model) is “moderate inhibition”.
The molecule `Cc1ccc(C=NNC(=O)c2cccs2)o1` [Compound 4, 2-Thiophencarboxylic acid, [(5-methyl-2-furanyl)methylene] hydrazide (9CI)] had an IC50 (Antiglycation IC50 (unit printed as μ), BSA-MG model assay) of 442.8 ± 0.68 µM and an IC50 under setting [1] of 442.8 ± 0.68 µM. Moreover, under “BSA-MG model”, the “antiglycation activity (in words)” value is on record as “moderate inhibition”.
Molecule `C(=NNc1ccccn1)c1ccccn1` [Compound 5, 1,3-Bis(2′-pyridyl)-1,2-diazapropen-2-ene] came in with a half-maximal inhibitory concentration (IC50) under setting [1] of 397.2 ± 2.2 µM.
Consider `C(=Nc1ccc(Cc2ccc(N=Cc3ccccn3)cc2)cc1)c1ccccn1` [Compound 6, Bis[4-(2-pyridylmethyleneamino)phenyl]methane], for which it took 862.8 ± 3.3 µM to reach half-maximal inhibition under setting [1] (IC50).
As to `C[C@@H]1O[C@@H](OC[C@H]2O[C@@H](Oc3c(-c4ccc(O)c(O)c4)oc4cc(O)cc(O)c4c3=O)[C@H](O)[C@@H](O)[C@@H]2O)[C@H](O)[C@H](O)[C@H]1O` [Rutin, reference compound], the IC50 (BSA-MG model, 10 mg/mL BSA, 14 mM methylglyoxal, 37° C., 9 days, fluorescence ex 330/em 420 nm, read-out: Antiglycation Studies IC50 ± SEM) was 294 µM and 295 µM.

(Values after patent US20140221429A1, “HETEROCYCLIC SCHIFF'S BASES AS NOVEL AND NEW ANTIGLYCATION AGENTS” (priority 2013, published 2014).)
